The species entered for assay [1] is Homo sapiens. The experiment in a line: (§1) Compound was evaluated for inhibition of Interleukin (IL1-beta) release in human monocytes. In kind it is functional.
The species named for assay [2] is Homo sapiens. The experiment in a line: Compound was evaluated for percentage inhibition of Interleukin (IL1-beta) release in human monocytes at a concentration of 1000 nM. In kind it is functional.
Assay [3] is filed under the species Homo sapiens. The assay can be described thus: Compound was evaluated for percentage inhibition of Interleukin (IL1-beta) release in human monocytes at a concentration of 3000 nM. In kind it is functional.
The nature of assay [4]: as §1. The assay is classed as functional, cell-based.

`C[C@]12CC[C@H]3[C@@H](C=CC4=CC(=O)C(O)=C[C@@]43C)[C@@H]1CC[C@@H]2O`: half-maximal inhibition in assay [1] (IC50) was put at 3 µM.

As to `C[C@]12CC[C@@H]3c4ccc(O)cc4C=C[C@H]3[C@@H]1CCC2=O`, the inhibition (usually the change of the read-out against control, counted positive when it falls) at 1 µM in assay [2] amounted to 1%.

`CC(=O)OC1=C[C@@]2(C)C(=CC1=O)C=C[C@H]1[C@@H]3CC[C@H](OC(C)=O)[C@@]3(C)CC[C@@H]12`: in assay [1], the IC50 – broadly, the midpoint of a concentration-inhibition curve – was determined as 3 µM.

Turning to `C[C@]12CC[C@H]3C(=CCc4cc(O)ccc43)[C@@H]1CCC2=O` [EQUILIN], in assay [2], the inhibition at 1 µM was -11%.

On to `CC(=O)Oc1cc2c(c(C)c1OC(C)=O)[C@H]1CC[C@]3(C)[C@@H](OC(C)=O)CC[C@H]3[C@@H]1C=C2`, for which, in assay [1], the IC50 was found to be 0.15 µM.

On to `C[C@]12CC[C@H]3[C@@H](CCC4=CC(=O)C(O)=C[C@@]43C)[C@@H]1CC[C@@H]2O`, for which the inhibition at 3 µM in assay [3] amounted to 36%.

`COC(=O)[C@]1(C)CC[C@]2(C)CC[C@]3(C)C4=CCc5c(cc(OC(C)=O)c(OC(C)=O)c5C)[C@]4(C)CC[C@@]3(C)[C@@H]2C1` [PRISTIMEROL DIACETATE]: the half-maximal inhibitory concentration (IC50) in assay [1] came to 0.08 µM.

As for `C[C@]12CCc3c(ccc4cc(O)ccc34)[C@@H]1CCC2=O` [EQUILENIN], in assay [2], the inhibition at 1 µM turned out to be 27%.

The compound `CC1=C(O)C(=O)C=C2C1=CC=C1[C@@]2(C)CC[C@@]2(C)[C@@H]3C[C@](C)(C(=O)O)CC[C@]3(C)CC[C@]12C` [CELASTROL] came in with an IC50 in assay [4] of 0.04 µM.

These data come from ChEMBL document CHEMBL1130623, “Novel cytokine release inhibitors. Part II: Steroids” (Bioorg Med Chem Lett, 1998).
